These compounds were tested against wild type c-kit (Homo sapiens (Human), UniProt P10721) (assay: MSD Phospho c-Kit (Tyr721) Assay Whole Cell Lysate Kit in SCF-stimulated M-07e cells (pKIT assay, marked *)). Settings: Meso Scale Discovery (MSD) assay (values marked *).
Format: cell-based
Protocol: The ability of compounds of the disclosure (described herein as test compounds) to inhibit autophosphorylation of wild type c-kit was measures using either a PathScan phospho c-kit (Tyr719) sandwich ELISA (CST #7298) or a Phospho c-Kit (Tyr721) Assay Whole Cell Lysate Kit (MSD: 515DPD/catalog number K15119D-2).
For the MSD Phospho c-Kit (Tyr721) Assay Whole Cell Lysate Kit: M-07e cells were maintained in Iscove's Modified Dulbecco's Medium (IMDM) media supplemented with 10% FBS, 5 ng/ml granulocyte-macrophage colony-stimulating factor (GM-CSF) and 100 units/mL Penicillin-Streptomycin, and grown in a 37° C., 5% CO2 in a humidified tissue culture incubator. M-07e cells were washed with phenol red-free, serum-free, GM-CSF-free IMDM and seeded in the same media at 100,000 cells well in a volume of 50 ul in a 96-well U-bottom plate. The cells were incubated for 4 hours, followed by the addition of test compound at a final DMSO concentration of 0.25% for 60 min at 37° C. to generate an 8-point dose concentration series of test compounds. The cells were stimulated with 50 ng/ml human SCF for 10 min at room temperature. Cells were then lysed by the addition of 16.5 ul of PerkinElmer 5× AlphaLISA Lysis Buffer supplemented with Cell Signaling Technologies protease/phosphatase inhibitor. Lysis was encouraged by shaking at 4° C. for 30 minutes.
25 ul of lysate was transferred to the MSD plate and the plate was shaken at 700 rpm at room temperature for one hour, followed by washing 3 times with Tris wash buffer. Next, 25 ul of detection antibody solution (diluted from 50× stock in antibody dilution buffer) was added. After shaking at 700 rpm at room temperature for one hour, the plate was washed 3 times with Tris wash buffer. The plate was then read on MSD Sector Imager immediately after 150 ul of reading buffer added to each well.
An IC50 was calculated using a 4-parameter logistic nonlinear regression.

wild type c-kit, sequence (P10721 26-976): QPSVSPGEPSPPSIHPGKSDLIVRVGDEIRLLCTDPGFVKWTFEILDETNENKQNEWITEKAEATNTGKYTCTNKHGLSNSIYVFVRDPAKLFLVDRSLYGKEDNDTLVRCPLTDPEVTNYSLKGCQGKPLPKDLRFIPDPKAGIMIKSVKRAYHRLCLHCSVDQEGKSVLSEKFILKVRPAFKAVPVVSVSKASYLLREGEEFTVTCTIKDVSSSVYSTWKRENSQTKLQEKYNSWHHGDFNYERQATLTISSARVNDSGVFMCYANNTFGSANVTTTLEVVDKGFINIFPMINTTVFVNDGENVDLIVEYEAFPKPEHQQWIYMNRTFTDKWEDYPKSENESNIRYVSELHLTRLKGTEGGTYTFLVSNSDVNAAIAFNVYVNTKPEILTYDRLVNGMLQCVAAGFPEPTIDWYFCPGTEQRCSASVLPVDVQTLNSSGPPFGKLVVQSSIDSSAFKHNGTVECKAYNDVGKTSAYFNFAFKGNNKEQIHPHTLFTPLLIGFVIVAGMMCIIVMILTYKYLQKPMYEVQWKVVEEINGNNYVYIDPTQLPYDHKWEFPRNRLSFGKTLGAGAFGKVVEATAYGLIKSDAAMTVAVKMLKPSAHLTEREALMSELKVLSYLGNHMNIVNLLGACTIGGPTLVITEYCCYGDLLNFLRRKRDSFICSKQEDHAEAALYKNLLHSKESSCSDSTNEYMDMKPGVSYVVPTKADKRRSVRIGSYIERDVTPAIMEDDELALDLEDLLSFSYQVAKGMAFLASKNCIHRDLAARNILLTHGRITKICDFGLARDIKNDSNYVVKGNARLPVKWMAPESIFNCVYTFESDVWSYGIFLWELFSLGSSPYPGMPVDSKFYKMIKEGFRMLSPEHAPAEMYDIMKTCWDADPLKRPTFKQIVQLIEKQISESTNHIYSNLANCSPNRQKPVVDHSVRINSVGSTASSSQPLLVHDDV

| IC50 | SMILES |
| --- | --- |
| 3.8 nM | CO[C@H]1C[C@@H](n2nnc(-c3ccc(C)c(NC(=O)c4cnn5ccccc45)c3)n2)C1 [Example 35, N-(5-(2-((1s,3s)-3-methoxycyclobutyl)-2H-tetrazol-5-yl)-2-methylphenyl)pyrazolo[1,5-a]pyridine-3-carboxamide] |
| 9.1 nM | Cc1ccc(-c2nnn(C(C)C3CCOCC3)n2)cc1NC(=O)c1cnn2ccccc12 (single isomer, unassigned) [Example 39, (R)-N-(2-methyl-5-(2-(1-(tetrahydro-2H-pyran-4-yl)ethyl)-2H-tetrazol-5-yl)phenyl)pyrazolo[1,5-a]pyridine-3-carboxamide or (S)-N-(2-methyl-5-(2-(1-(tetrahydro-2H-pyran-4-yl)ethyl)-2H-tetrazol-5-yl)phenyl)pyrazolo[1,5-a]pyridine-3-carboxamide] |
| 4.9 nM | COCCS(=O)(=O)N1CC(c2nnn(-c3ccc(C)c(NC(=O)c4cnn5ccccc45)c3)n2)C1 [Example 189, N-(5-(5-(1-((2-methoxyethyl)sulfonyl)azetidin-3-yl)-2H-tetrazol-2-yl)-2-methylphenyl)pyrazolo[1,5-a]pyridine-3-carboxamide] |
| 8.4 nM | Cc1ccc(-c2nnn(CC3CCOCC3)n2)cc1NC(=O)c1cnn2ccccc12 [Example 3, N-(2-methyl-5-(2-((tetrahydro-2H-pyran-4-yl)methyl)-2H-tetrazol-5-yl)phenyl)pyrazolo[1,5-a]pyridine-3-carboxamide] |
| 9.5 nM | Cc1ccc(-c2nnn(CC3CCCCO3)n2)cc1NC(=O)c1cnn2ccccc12 (stereo not drawn) [Example 34, N-(2-methyl-5-(2-((tetrahydro-2H-pyran-2-yl)methyl)-2H-tetrazol-5-yl)phenyl)pyrazolo[1,5-a]pyridine-3-carboxamide] |
| 8.3 nM | Cc1ccc(-c2nnn(C3CCOCC3)n2)cc1NC(=O)c1cnn2ccccc12 [Example 31, N-(2-methyl-5-(2-(tetrahydro-2H-pyran-4-yl)-2H-tetrazol-5-yl)phenyl)pyrazolo[1,5-a]pyridine-3-carboxamide] |
| 2.4 nM | Cc1ccc(-c2nnn(C[C@H]3CC3(F)F)n2)cc1NC(=O)c1cnn2ccccc12 (single isomer, unassigned) [Example 26, (R)—N-(5-(2-((2,2-difluorocyclopropyl)methyl)-2H-tetrazol-5-yl)-2-methylphenyl)pyrazolo[1,5-a]pyridine-3-carboxamide or (S)—N-(5-(2-((2,2-difluorocyclopropyl)methyl)-2H-tetrazol-5-yl)-2-methylphenyl)pyrazolo[1,5-a]pyridine-3-carboxamide] |
| 4 nM | Cc1ccc(-c2nnn(C3CN(S(=O)(=O)C(F)(F)F)C3)n2)cc1NC(=O)c1cnn2ccccc12 [Example 182] |
| 3.1 nM | Cc1ccc(-c2nnn(C[C@H]3CCCCO3)n2)cc1NC(=O)c1cnn2ccccc12 (single isomer, unassigned) [Example 40, (S)-N-(2-methyl-5-(2-((tetrahydro-2H-pyran-2-yl)methyl)-2H-tetrazol-5-yl)phenyl)pyrazolo[1,5-a]pyridine-3-carboxamide or (R)-N-(2-methyl-5-(2-((tetrahydro-2H-pyran-2-yl)methyl)-2H-tetrazol-5-yl)phenyl)pyrazolo[1,5-a]pyridine-3-carboxamide] |
| 9.1 nM | Cc1ccc(-c2nnn(C3CC3)n2)cc1NC(=O)c1cnn2ccccc12 [Example 28, N-(5-(2-cyclopropyl-2H-tetrazol-5-yl)-2-methylphenyl)pyrazolo[1,5-a]pyridine-3-carboxamide] |
| 2.5 nM | Cc1ccc(-c2nnn(C3CC(F)C3)n2)cc1NC(=O)c1cnn2ccccc12 (stereo not drawn) [Example 32, N-(5-(2-(3-fluorocyclobutyl)-2H-tetrazol-5-yl)-2-methylphenyl)pyrazolo[1,5-a]pyridine-3-carboxamide] |
| 5.7 nM | Cc1ccc(-c2nnn(CCOCC(F)(F)F)n2)cc1NC(=O)c1cnn2ccccc12 [Example 158, N-(2-methyl-5-(2-(2-(2,2,2-trifluoroethoxy)ethyl)-2H-tetrazol-5-yl)phenyl)pyrazolo[1,5-a]pyridine-3-carboxamide] |
| 5.2 nM | COC(=O)N1CC(c2cnn(-c3ccc(Cl)c(NC(=O)c4cnn5ccccc45)c3)n2)C1 [Example 193] |
| 1.6 nM | Cc1ccc(-c2nnn(Cc3ccccc3F)n2)cc1NC(=O)c1cnn2ccccc12 [Example 13, N-(5-(2-(2-fluorobenzyl)-2H-tetrazol-5-yl)-2-methylphenyl)pyrazolo[1,5-a]pyridine-3-carboxamide] |
| 3.8 nM | Cc1ccc(-c2nnn(C3CC4(C3)CC4(F)F)n2)cc1NC(=O)c1cnn2ccccc12 (single isomer, unassigned) [Example 42, N-(5-(2-((3r,5r)-1,1-difluorospiro [2.3]hexan-5-yl)-2H-tetrazol-5-yl)-2-methylphenyl)pyrazolo[1,5-a]pyridine-3-carboxamide or N-(5-(2-((3s,5s)-1,1-difluorospiro[2.3]hexan-5-yl)-2H-tetrazol-5-yl)-2-methylphenyl)pyrazolo[1,5-a]pyridine-3-carboxamide] |
| 6.2 nM | Cc1ccc(-c2nnn([C@H](C)C3CC3)n2)cc1NC(=O)c1cnn2ccccc12 (single isomer, unassigned) [Example 37, (R)-N-(5-(2-(1-cyclopropylethyl)-2H-tetrazol-5-yl)-2-methylphenyl)pyrazolo[1,5-a]pyridine-3-carboxamide or (S)-N-(5-(2-(1-cyclopropylethyl)-2H-tetrazol-5-yl)-2-methylphenyl)pyrazolo[1,5-a]pyridine-3-carboxamide] |
| 2.7 nM | Cc1ccc(-c2nnn(CC34CC(F)(C3)C4)n2)cc1NC(=O)c1cnn2ccccc12 [Example 30, N-(5-(2-((3-fluorobicyclo[1.1.1]pentan-1-yl)methyl)-2H-tetrazol-5-yl)-2-methylphenyl)pyrazolo[1,5-a]pyridine-3-carboxamide] |
| 7.2 nM | Cc1ccc(-c2nnn([C@H](C)C3CC3)n2)cc1NC(=O)c1cnn2ccccc12 (single isomer, unassigned) [Example 38, (S)-N-(5-(2-(1-cyclopropylethyl)-2H-tetrazol-5-yl)-2-methylphenyl)pyrazolo[1,5-a]pyridine-3-carboxamide or (R)-N-(5-(2-(1-cyclopropylethyl)-2H-tetrazol-5-yl)-2-methylphenyl)pyrazolo[1,5-a]pyridine-3-carboxamide] |
| 7.6 nM | Cc1ccc(-c2nnn(C[C@@H]3CC3(F)F)n2)cc1NC(=O)c1cnn2ccccc12 (single isomer, unassigned) [Example 25, (S)—N-(5-(2-((2,2-difluorocyclopropyl)methyl)-2H-tetrazol-5-yl)-2-methylphenyl)pyrazolo[1,5-a]pyridine-3-carboxamide or (R)—N-(5-(2-((2,2-difluorocyclopropyl)methyl)-2H-tetrazol-5-yl)-2-methylphenyl)pyrazolo[1,5-a]pyridine-3-carboxamide] |
| 2.7 nM | Cc1ccc(-c2nnn(C3CCC3)n2)cc1NC(=O)c1cnn2ccccc12 [Example 8, N-(5-(2-cyclobutyl-2H-tetrazol-5-yl)-2-methylphenyl)pyrazolo[1,5-a]pyridine-3-carboxamide] |
| 2.6 nM | Cc1ccc(-c2nnn(C3CC4(CCC4)C3)n2)cc1NC(=O)c1cnn2ccccc12 [Example 4, N-(2-methyl-5-(2-(spiro[3.3]heptan-2-yl)-2H-tetrazol-5-yl)phenyl)pyrazolo[1,5-a]pyridine-3-carboxamide] |
| 1.8 nM | Cc1ccc(-c2nnn(CC[C@@](C)(O)C(F)(F)F)n2)cc1NC(=O)c1cnn2ccccc12 (single isomer, unassigned) [Example 41, (R)-N-(2-methyl-5-(2-(4,4,4-trifluoro-3-hydroxy-3-methylbutyl)-2H-tetrazol-5-yl)phenyl)pyrazolo[1,5-a]pyridine-3-carboxamide or (S)-N-(2-methyl-5-(2-(4,4,4-trifluoro-3-hydroxy-3-methylbutyl)-2H-tetrazol-5-yl)phenyl)pyrazolo[1,5-a]pyridine-3-carboxamide] |
| 2.6 nM | Cc1ccc(-c2nnn([C@H]3C[C@@H](C(F)(F)F)C3)n2)cc1NC(=O)c1cnn2ccccc12 [Example 23, N-(2-methyl-5-(2-((1s,3s)-3-(trifluoromethyl)cyclobutyl)-2H-tetrazol-5-yl)phenyl)pyrazolo[1,5-a]pyridine-3-carboxamide or N-(2-methyl-5-(2-((1r,3r)-3-(trifluoromethyl)cyclobutyl)-2H-tetrazol-5-yl)phenyl)pyrazolo[1,5-a]pyridine-3-carboxamide] |
| 5 nM | Cc1ccc(-c2nnn(C3CC(F)(F)C3)n2)cc1NC(=O)c1cnn2ccccc12 [Example 5, N-(5-(2-(3,3-difluorocyclobutyl)-2H-tetrazol-5-yl)-2-methylphenyl)pyrazolo[1,5-a]pyridine-3-carboxamide] |
